Data on one compound can be found in patent US10500288B2, “Cytotoxic HEXIM1 peptides and uses thereof” (AGENCY FOR SCIENCE, TECHNOLOGY AND RESEARCH, priority 2015, dated 2019).

In series [1] the test system is MCF7 cells. As to the kind of experiment: CellTox cytotoxicity assay with or without z-VAD-Fmk. The format is cell-based. Particulars: 30 μM, thirty minutes at 37° C. The method, then:
HCT116 (p53 WT) and HCT116 (p53 KO) cells were cultured on glass slides overnight, treated with vehicle control (0.5% dimethyl sulfoxide (DMSO)) or the indicated FGF peptides (30 μM). Time-lapse DIC imaging highlights dynamic morphological changes in treated HCT116 cells by spinning disk confocal microscopy. […] In contrast, FGF-BR peptide rapidly induces drastic changes to the cell morphology with rupturing of the plasma membrane accompanied with damages to the nuclear membrane and abnormalities to the nucleolus in both cell types. (B) cytotoxicity fluorescence plots of breast cancer cells MCF7 showing the effect of pan-caspase inhibitor z-VAD-Fmk on cells treated with LTV-tagged BR peptide. […] Data representative of at least three independent experiments performed in triplicate were shown with values expressed as mean±SD.
Cells were plated in clear-bottomed white walled 96-well plates (Corning) and incubated overnight. […] Cell viability was measured with CellTiter-Glo reagent (Promega) according to the manufacturer's instructions. […] Upon treatment with a pan-caspase inhibitor, z-VAD-Fmk ([…]) (Sigma) and subsequent treatment with LTV-tagged peptides, cytotoxicity induced was determined by CellTox cytotoxicity assay (Promega) 30 minutes after addition of peptides according to the manufacturer's instructions. Luminescence was determined using an Infinite 200 multiplate reader (Tecan).

Series [2] relates to human foreskin fibroblasts (HFF). In words: Cell viability (Cell-Titer Glo) in human foreskin fibroblasts. Type of series: cell-based. The following applies: HFF normal fibroblasts; overnight, various concentrations. The method, then:
Human cell lines including HeLa, HEK293, MCF7, MDA-MB-231, CHO-K1, OPM-2, and WI-38 were obtained from American Type Culture Collection. AML2 and AML3 cells were purchased from Deutsche Sammlung von Mikroorganismen und Zellkulturen. HCT116 p53+/+ and p53−/− cells were kindly given by Dr. Bert Vogelstein. Primary human foreskin fibroblasts (HFF) were obtained from Dr. Mark Stinski. […] MDA-MB-231 and OPM-2 cells were cultured in RPMI-1640 (Gibco) containing 10% FBS and 1% penicillin/streptomycin. All cells were routinely maintained in a 37° C. incubator with 5% CO2.
Cells were plated in clear-bottomed white walled 96-well plates (Corning) and incubated overnight. Cells were treated with indicated peptides in 1% FBS-containing media for overnight or indicated timings at 37° C. Cell viability was measured with CellTiter-Glo reagent (Promega) according to the manufacturer's instructions. For cytotoxicity assay, cells were plated in black walled 96-well plates (Corning) to allow them to adhere overnight. Upon treatment with a pan-caspase inhibitor, z-VAD-Fmk ([…]) (Sigma) and subsequent treatment with LTV-tagged peptides, cytotoxicity induced was determined by CellTox cytotoxicity assay (Promega) 30 minutes after addition of peptides according to the manufacturer's instructions. Luminescence was determined using an Infinite 200 multiplate reader (Tecan).

Peptide text beside a SMILES is read from it.

Regarding `CC(C)C[C@H](NC(=O)[C@H](CCC(N)=O)NC(=O)CNC(=O)[C@H](CS)NC(=O)CNC(=O)[C@H](Cc1ccc(O)cc1)NC(=O)[C@H](Cc1c[nH]c2ccccc12)NC(=O)[C@@H]1CCCN1C(=O)[C@H](CO)NC(=O)[C@@H](NC(=O)[C@@H](NC(=O)[C@@H](N)CC(C)C)[C@@H](C)O)C(C)C)C(=O)NCC(=O)N[C@@H](CCCCN)C(=O)N[C@@H](CCCCN)C(=O)N[C@@H](CCCCN)C(=O)N[C@@H](Cc1c[nH]cn1)C(=O)N[C@@H](CCCNC(=N)N)C(=O)N[C@@H](CCCNC(=N)N)C(=O)N[C@@H](CCCNC(=N)N)C(=O)N1CCC[C@H]1C(=O)N[C@@H](CO)C(=O)N[C@@H](CCCCN)C(=O)N[C@@H](CCCCN)C(=O)N[C@@H](CCCCN)C(=O)N[C@@H](CCCNC(=N)N)C(=O)N[C@@H](Cc1c[nH]cn1)C(=O)N[C@@H](Cc1c[nH]c2ccccc12)C(=O)O` [LTV-BR] (H-LTVSPWYGCGQLGKKKHRRRPSKKKRHW-OH), the cytotoxicity fluorescence entry in series [1] was “significant cytotoxic effect”. In addition, the “cytotoxicity (cell viability)” value in series [2] is “does not show such non-specific cytotoxicity”.
